Data from the supplement of paper PMC10307832.

Columns and labels:
Assay in all cases: relative viability (nuclei count vs DMSO), 5 days (fraction); higher = more cells survive
[1] = compound: C[C@@]1(C(=O)Nc2ccc(F)nc2)CCCN1c1nc(Nc2cc(C3CC3)n[nH]2)c2cccn2n1 + CC(C)C[C@H](NC(=O)[C@H](Cc1ccccc1)NC(=O)c1cnccn1)B(O)O [Bortezomib] (partner 0.002 µM)
In short: (§1)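 Cells from lung cancer lines were seeded into 1536-well plates and, one day later, dosed by pin tool. Treatments were either a single drug or a fixed dose of an anchor drug with five library-drug doses (not always all listed) in √10 steps. After 5 days, nuclei were stained in a one-step fixation (final 0.05% Triton X-100, 1% formaldehyde, 1 ug/ml Hoechst) and counted on 4× images, and relative viability is the treated-to-vehicle nuclei ratio, as the median of duplicate plates.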

Motesanib + Crizotinib = compound: CC1(C)CNc2cc(NC(=O)c3cccnc3NCc3ccncc3)ccc21 [Motesanib] + C[C@@H](Oc1cc(-c2cnn(C3CCNCC3)c2)cnc1N)c1c(Cl)ccc(F)c1Cl [Crizotinib] (partner 1 µM)
In short: as §1

[2] = compound: C[C@@]1(C(=O)Nc2ccc(F)nc2)CCCN1c1nc(Nc2cc(C3CC3)n[nH]2)c2cccn2n1 + O=C(CCCCCCC(=O)Nc1ccccc1)NO [Vorinostat] (partner 1 µM)
In short: as §1

Motesanib + Palbociclib = compound: CC1(C)CNc2cc(NC(=O)c3cccnc3NCc3ccncc3)ccc21 [Motesanib] + CC(=O)c1c(C)c2cnc(Nc3ccc(N4CCNCC4)cn3)nc2n(C2CCCC2)c1=O [Palbociclib] (partner 0.5 µM)
In short: as §1

Cell Line	relative viability ([1]; first compound 0.04 µM)	relative viability ([1]; first compound 0.1265 µM)	relative viability ([1]; first compound 0.4 µM)	relative viability ([1]; first compound 1.265 µM)	relative viability (Motesanib + Crizotinib; first compound 0.01 µM)	relative viability (Motesanib + Crizotinib; first compound 0.03162 µM)	relative viability (Motesanib + Crizotinib; first compound 0.1 µM)	relative viability (Motesanib + Crizotinib; first compound 0.3162 µM)	relative viability (Motesanib + Crizotinib; first compound 1 µM)	relative viability ([2]; first compound 0.04 µM)	relative viability ([2]; first compound 0.1265 µM)	relative viability ([2]; first compound 0.4 µM)	relative viability ([2]; first compound 1.265 µM)	relative viability (Motesanib + Palbociclib; first compound 0.01 µM)	relative viability (Motesanib + Palbociclib; first compound 0.03162 µM)	relative viability (Motesanib + Palbociclib; first compound 0.1 µM)	relative viability (Motesanib + Palbociclib; first compound 0.3162 µM)	relative viability (Motesanib + Palbociclib; first compound 1 µM)
NCI-H1755	0.957	0.838	0.85	0.881	0.862	0.867	0.893	0.91	0.882	0.796	0.609	0.653	0.726	0.459	0.46	0.487	0.477	0.48
NCI-H1915	1.06	0.95	0.952	1.01	0.897	0.851	0.875	0.927	0.947	0.54	0.519	0.475	0.492	0.541	0.522	0.545	0.508	0.575
NCI-H1975	0.344	0.34	0.299	0.308	1.05	0.848	0.93	0.889	0.983	0.639	0.62	0.576	0.316	0.53	0.508	0.507	0.565	0.617
NCI-H1993	0.797	–	0.615	0.674	0.964	0.848	0.842	0.824	0.865	0.663	0.413	0.44	0.422	0.675	0.622	0.752	0.626	0.553
NCI-H2009	1.13	1.17	0.931	0.875	0.965	1.09	0.928	1.01	0.943	0.789	0.768	0.747	0.598	0.273	0.246	0.276	0.246	0.264
NCI-H2023	0.912	0.821	0.62	0.244	0.711	0.592	0.747	0.571	0.711	0.75	0.201	0.419	0.127	0.365	0.378	0.361	0.385	0.401
NCI-H2085	1.04	0.927	0.834	0.945	0.924	0.846	1.05	0.807	0.756	0.779	0.728	0.69	0.569	0.512	0.488	0.471	0.465	0.474
NCI-H2087	0.778	0.825	0.624	0.631	0.686	0.983	0.951	0.878	0.93	0.635	0.774	0.473	0.357	–	–	0.26	0.232	0.26
NCI-H2126	1.08	0.861	0.769	0.746	1.07	1	0.999	1.03	1.09	0.595	0.352	0.315	0.425	0.333	0.35	0.341	0.347	0.412
NCI-H2228	1.25	0.731	0.835	0.751	0.386	0.424	0.619	0.431	0.571	0.474	0.444	0.513	0.298	0.664	0.8	0.589	0.937	0.613
NCI-H2347	1.05	0.654	0.916	0.765	0.783	0.691	0.715	0.745	0.631	0.581	0.487	0.415	0.543	0.452	0.428	0.404	0.469	0.437
NCI-H2405	1	0.682	0.835	0.896	0.8	0.847	0.875	0.864	0.905	0.959	0.889	0.634	0.44	0.511	0.499	0.535	0.562	0.52
NCI-H3122	0.993	1.03	1.04	0.944	0.253	0.27	0.285	0.295	0.267	0.91	0.972	0.916	0.879	0.186	0.194	0.213	0.217	0.161
PC-3 [JPC-3]	0.831	0.819	0.788	0.874	0.997	1.03	1.02	1.01	1.01	0.717	0.718	0.755	0.525	0.558	0.544	0.568	0.605	0.559
PC-14	0.846	0.715	0.674	0.799	0.944	0.965	0.898	0.883	0.969	0.792	0.102	0.45	0.204	0.465	0.539	0.539	0.512	0.593
RERF-LC-KJ	0.919	0.872	0.907	0.878	0.87	0.762	0.878	0.768	0.879	0.747	0.605	0.621	0.467	1.11	0.968	1.18	1.12	1.19
SK-LU-1	1.06	1.03	0.93	0.884	0.961	0.935	0.826	0.897	0.988	0.804	0.761	0.55	0.367	0.386	0.438	0.44	0.409	0.401
SW 1573	0.894	0.611	0.7	0.716	0.686	0.887	0.913	0.746	0.973	0.667	0.585	0.482	0.263	0.321	0.385	0.498	0.38	0.444
